Patent publication US9844513B2, “Oral pharmaceutical composition” (Sigmoid Pharma Limited, priority 2007, dated 2017)
Where two headings read alike, the source gives them in different places.

How the values were obtained:
[1] = cited from earlier work
DSS-induced colitis mice = assay: DSS-induced colitis in mice (DSS 2.5% in drinking water); type: in vivo; conditions: 8 mg DMOG every second day
Method: Colitis was induced in mice using DSS 2.5% in drinking water. DMOG mini-capsules of example 20 with two different coating were used, namely DSS-bead (0.25 mg—immediate release), and DSS-COAT-bead (DSS-COAT beads coated with 22% Surelease®—DMOG: 0.25 mg/day) and were compared to non-treated DSS-induced colitis mice and mice treated with 8 mg DMOG IP every second day. The minicapsules were prepared using the method described in Example 20 above.
As DMOG is known to increase the production of erythropoietin it is expected that in the presence of systemic DMOG that the packed cell volume would be increased. The packed cell volume (PCV) is a measurement of the proportion of blood that is made up of cells. The value is expressed as a percentage or fraction of cells in blood. The PCV rises when the number of red blood cells increases. […] Thus, it could be concluded that when administered within the intestinal or colonic lumen that it acts locally at low dose and negligible concentrations are systemically available.
Referring to FIG. 21, the disease activity index (DAI) is calculated as the sum of scores of weight loss, stool consistency and blood in feces. […] The minicapsules were prepared using the method described in Example 20 above.
A major symptom of DSS-induced colitis is weight loss. […] Likewise, when 0.25 mg DMOG is administered daily as colon-specific beads (DSS-COAT beads coated with 22% Surelease®—DMOG: 0.25 mg/day), the protective effect is pronounced. […] The minicapsules were prepared using the method described in Example 20 above.

[2] = test system: antigen specific IgA and IgG; assay: Antigen specific IgA and IgG in intestinal washes by ELISA after immunisation of mice; type: in vivo; conditions: intestinal washes one week after booster
Method: FIG. 9 represents the immune response in mice immunised with minicapsules as described in Example 5 and Example 6. […] Mice were immunised on 3 consecutive days on week 0 followed by an identical series of booster immunisations at week 2. Intestinal washes were collected one week following the booster and antigen specific IgA and IgG was assessed by ELISA.

COc1ccccc1OCCNCC(O)COc1cccc2[nH]c3ccccc3c12 (centres unmarked) [Carvedilol]
time to reach maximum plasma concentration ([1]; absorbed from the small intestine): within two hours
relative absorption ([1]; colon): ~7%
absolute bioavailability ([1]; extensive first-pass metabolism): approximately 25%
relative absorption ([1]; ileum): ~28%
half-life ([1]; in vivo): 7 to 10 h
relative absorption ([1]; jejunum): approximately 56%

COC(=O)CNC(=O)C(=O)OC [DMOG, dimethyloxalglycine]
colon length (colon shortening) (DSS-induced colitis mice; Day 7, IP): significantly reduced colon shortening
packed cell volume (PCV) (DSS-induced colitis mice; Day 7, IP): increases the PCV
protective effect (weight loss) compared with non-treated DSS mice (DSS-induced colitis mice; IP): significant protective effect
Disease Activity Index (DAI) (DSS-induced colitis mice; IP, 7 days): high DAI

B1: OVA in solution: Ovalbumin antigen given in solution, comparison group (protein, UniProt P01012 2-386, looked up)
Ovalbumin: GSIGAASMEFCFDVFKELKVHHANENIFYCPIAIMSALAMVYLGAKDSTRTQINKVVRFDKLPGFGDSIEAQCGTSVNVHSSLRDILNQITKPNDVYSFSLASRLYAEERYPILPEYLQCVKELYRGGLEPINFQTAADQARELINSWVESQTNGIIRNVLQPSSVDSQTAMVLVNAIVFKGLWEKAFKDEDTQAMPFRVTEQESKPVQMMYQIGLFRVASMASEKMKILELPFASGTMSMLVLLPDEVSGLEQLESIINFEKLTEWTSSNVMEERKIKVYLPRMKMEEKYNLTSVLMAMGITDVFSSSANLSGISSAESLKISQAVHAAHAEINEAGREVVGSAEAGVDAASVSEEFRADHPFLFCIKHIATNAVLFFGRCVSP
titres of antigen specific IgG in the intestinal washes [2]: highest responses
